Experimental data taken from patent EP4656642A1, “ESTROGEN RECEPTOR PROTEOLYSIS TARGETING CHIMERA COMPOUND AND USE THEREOF” (GAN & LEE PHARM CO., LTD, priority 2023, dated 2024).
Values joined by “and” are separate entries in the source; they are usually repeats but may differ in a detail not shown here. Identical values can stand only once.

Legend:
Format in all cases: cell-based
ERα [1] = biological target: T1, ERα (Homo sapiens, UniProt P03372); experiment: Degradation of ERα in T-47D cells (immunoblotting, 4 h); parameters: host or cells: T-47D
T1 sequence (P03372 1-595): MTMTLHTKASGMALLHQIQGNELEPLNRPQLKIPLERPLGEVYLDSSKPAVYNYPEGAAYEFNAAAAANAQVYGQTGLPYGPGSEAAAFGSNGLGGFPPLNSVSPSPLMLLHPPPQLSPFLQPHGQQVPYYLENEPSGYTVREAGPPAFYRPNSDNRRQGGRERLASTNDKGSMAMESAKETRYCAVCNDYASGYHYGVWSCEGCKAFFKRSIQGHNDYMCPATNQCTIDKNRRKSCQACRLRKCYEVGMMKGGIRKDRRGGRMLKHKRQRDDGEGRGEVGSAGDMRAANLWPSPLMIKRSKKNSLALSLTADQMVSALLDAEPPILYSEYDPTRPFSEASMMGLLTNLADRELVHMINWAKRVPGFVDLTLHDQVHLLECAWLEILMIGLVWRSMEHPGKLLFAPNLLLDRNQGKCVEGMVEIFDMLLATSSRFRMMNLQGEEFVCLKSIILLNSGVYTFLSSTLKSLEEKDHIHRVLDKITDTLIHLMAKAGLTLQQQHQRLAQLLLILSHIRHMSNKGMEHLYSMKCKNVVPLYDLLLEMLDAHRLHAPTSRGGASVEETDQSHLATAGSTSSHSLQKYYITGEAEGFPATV
How it was run: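 ERα protein levels were assessed by immunoblot of RIPA lysates (with protease inhibitor) after 4 h exposure at 37°C. Compound was added in DMSO to T-47D cells at final concentrations of 0.15-1000 nM.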

ERα [2] = biological target: T1, ERα; experiment: Degradation of ERα in MCF-7 cells (immunoblotting, 4 h)
How it was run: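 Degradation rate reflects ERα band intensity, corrected to an internal reference protein, relative to control. Values come from Western blotting of lysates from MCF-7 cells exposed 4 h at 37°C to compounds at final concentrations of 0.15-1000nM.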

MCF-7 cells = experiment: Inhibition of cell proliferation of MCF-7 cells (CCK-8, 9 days)
How it was run: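 Read-out was CCK-8 viability after 9-day continuous exposure (37°C, 5% CO2) of MCF-7 cells plated at 800/well in 10% FBS DMEM across several compound concentrations. Values are proliferation IC50s.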

T-47D cells = experiment: Inhibition of cell proliferation in T-47D cells (CCK-8, 6 days); details: 6 days of treatment
From the text: Test Example 2: Inhibitory effect of the PROTAC compounds provided in the present disclosure on cell proliferation in T-47D cells (source ATCC)
The complete medium required for T-47D cells was 1640 ( ATCC, Product number: A10491-01) basal medium containing 10% fetal bovine serum. T-47D cells were inoculated in 96-well plates at a density of 3,000 cells/well, and different concentrations of the PROTAC compounds 1-55 provided in the examples of the present disclosure and a positive control sample ARV-471 (source: Innochem) were prepared to treat cells, and the cells were treated at 37°C in a cell culture incubator with 5% CO2 for 6 days. Cell viability was detected using a CCK-8 kit (Beyotime, Product number: C0040) according to the manufacturer's instructions. […] Table 2 IC50 values for inhibition of the proliferation of T-47D cells by the PROTAC compounds provided by the present disclosure and the positive control sample

[3] = treated for 9 days, CCK-8 kit (Table 6)
[4] = 9 days of treatment, CCK-8, Table 5

| SMILES | Degradation rate (%) of ERα in T-47D cells (ERα [1]; 1nM compound) | Degradation rate (%) of ERα in T-47D cells (ERα [1]; 10nM compound) | Degradation rate (%) of ERα in MCF-7 cells (ERα [2]; 1nM compound) | Degradation rate (%) of ERα in MCF-7 cells (ERα [2]; 10nM compound) | IC50 (MCF-7 cells; [3]) | IC50 (T-47D cells; Table 3) | IC50 (T-47D cells; Table 2) | IC50 (MCF-7 cells; [4]) |
| --- | --- | --- | --- | --- | --- | --- | --- | --- |
| O=C1CCC(N2Cc3c(ccc4c3OCC43CCN(C4CCN(C(=O)C5CCN(c6ccc([C@@H]7c8ccc(O)cc8CC[C@@H]7c7ccccc7)cc6)CC5)[C@@H](C(=O)N5CCC(F)(F)C5)C4)CC3)C2=O)C(=O)N1 (some centres unmarked) [C2] | 49% | 81% | 42% | 63% | 31.1 nM | 1.68 nM |  |  |
| O=C1CCC(N2Cc3c(ccc4c3OCC43CCN(C4CCN(C5CC6(CCN(c7ccc([C@@H]8c9ccc(O)cc9CC[C@@H]8c8ccccc8)cc7)CC6)C5)CC4F)CC3)C2=O)C(=O)N1 (some centres unmarked) [H33] | 27% | 72% | 32% | 76% | 12.5 nM | 1.37 nM |  |  |
| O=C1CCC(N2C(=O)c3ccc4c(c3C2=O)OCC42CCN(C(=O)CN3CCC4(CCN(c5ccc([C@@H]6c7ccc(O)cc7CC[C@@H]6c6ccccc6)cc5)CC4)C3)CC2)C(=O)N1 (some centres unmarked) [K24] | 48% | 72% | 31% | 46% | 32.5 nM | 1.44 nM |  |  |
| O=C1CCC(N2C(=O)c3cc4c(cc3C2=O)C2(CCN(CC3CN(c5ccc([C@@H]6c7ccc(O)cc7CC[C@@H]6c6ccccc6)cc5)C3)CC2)CO4)C(=O)N1 (some centres unmarked) [B3] |  | -18% |  | -14% |  |  | 100 nM |  |
| O=C1CCC(N2Cc3c(ccc4c3OCC43CCN(C4CC5(CCC6(CCN(c7ccc([C@@H]8c9ccc(O)cc9CC[C@@H]8c8ccccc8)cc7)CC6)CC5)C4)CC3)C2=O)C(=O)N1 (some centres unmarked) [B23] |  |  | 17% | 40% | 417 nM | 10.2 nM |  |  |
| O=C1CCC(N2C(=O)c3cc4c(cc3C2=O)C2(CCN(C3CC5(CCN(c6ccc(C7c8ccc(O)cc8CCC7c7ccccc7)cc6)CC5)C3)CC2)CO4)C(=O)N1 (centres unmarked) [A19] |  | 18% |  | 18% |  |  | 20 nM |  |
| O=C1CCC(N2C(=O)c3cc4c(cc3C2=O)C2(CCN(CC3CCN(c5ccc(C6c7ccc(O)cc7CCC6c6ccccc6)cc5)C3)CC2)CO4)C(=O)N1 (centres unmarked) [B1] |  | -15% |  | -35% |  |  | 38 nM |  |
| CC1CC(N2CCC3(CC2)COc2c3ccc3c2CN(C2CCC(=O)NC2=O)C3=O)CCN1C1CCN(c2ccc(C3c4ccc(O)cc4CCC3c3ccccc3)cc2)CC1 (centres unmarked) [K22] | -3% | 19% |  |  | 24.3 nM | 8.52 nM |  |  |
| O=C1CCC(N2C(=O)c3cc4c(cc3C2=O)OC2(CC4)CCN(CC3CCN(c4ccc(C5c6ccc(O)cc6CCC5c5ccccc5)cc4)C3)CC2)C(=O)N1 (centres unmarked) [A9] |  | -25% |  | -24% |  |  | 24 nM |  |
| O=C1CCC(N2Cc3c(ccc4c3OCC43CCN(CC4(F)CCN(CC5CCN(c6ccc([C@@H]7c8ccc(O)cc8CC[C@@H]7c7ccccc7)cc6)CC5)CC4)CC3)C2=O)C(=O)N1 (some centres unmarked) [N6] | 35% | 62% | 34% | 55% |  | 0.87 nM |  |  |
| CC1(C(=O)N2CCC(N3CCC4(CC3)COc3c4ccc4c3CN(C3CCC(=O)NC3=O)C4=O)CC2)CCN(c2ccc([C@@H]3c4ccc(O)cc4CC[C@@H]3c3ccccc3)cc2)CC1 (some centres unmarked) [N1] | 58% | 79% | 54% | 68% |  | 1.18 nM |  |  |
| O=C1CCC(N2Cc3c(ccc4c3OCC43CCN(C4CC5(CCC6(CC5)CN(C5CCN(c7ccc([C@@H]8c9ccc(O)cc9CC[C@@H]8c8ccccc8)cc7)CC5)C6)C4)CC3)C2=O)C(=O)N1 (some centres unmarked) [K16] |  |  |  |  | 320 nM and 214 nM | 3 nM |  |  |
| O=C1CCC(N2C(=O)c3cc4c(cc3C2=O)OC2(CC4)CN(CC3CCC4(CC3)CN(c3ccc([C@@H]5c6ccc(O)cc6CC[C@@H]5c5ccccc5)cc3)C4)C2)C(=O)N1 (some centres unmarked) [M14] | -29% | -17% |  |  | 23 nM | 30 nM |  |  |
| O=C1CCC(N2C(=O)c3cc4c(cc3C2=O)OC2(CC4)CN(C3CC4(CCN(c5ccc([C@@H]6c7ccc(O)cc7CC[C@@H]6c6ccccc6)cc5)CC4)C3)C2)C(=O)N1 (some centres unmarked) [M10] | 22% | 54% |  |  |  |  | 14 nM |  |
| O=C1CCC(N2C(=O)c3cc4c(cc3C2=O)C2(CCN(C3CCN(c5ccc(C6c7ccc(O)cc7CCC6c6ccccc6)cc5)CC3)CC2)CO4)C(=O)N1 (centres unmarked) [A16] |  | -22% |  | -5% |  |  | 91 nM |  |
| O=C1CCC(N2C(=O)c3cc4c(cc3C2=O)OC2(CC4)CN(C3CC4(CCN(c5ccc(C6c7ccc(O)cc7CCC6c6ccccc6)cc5)CC4)C3)C2)C(=O)N1 (centres unmarked) [M9] |  |  |  |  |  |  | 101 nM |  |
| O=C1CCC(N2Cc3cc4c(cc3C2=O)OCC2(CCN(C3CC5(CCN(c6ccc([C@@H]7c8ccc(O)cc8CC[C@@H]7c7ccccc7)cc6)CC5)C3)CC2)O4)C(=O)N1 (some centres unmarked) [M11] | 17% | 56% |  |  |  |  | 1 nM | 20 nM |
| O=C1CCC(N2Cc3cc4c(cc3C2=O)CCC2(CCN(C3CC5(CCN(c6ccc([C@@H]7c8ccc(O)cc8CC[C@@H]7c7ccccc7)cc6)CC5)C3)CC2)O4)C(=O)N1 (some centres unmarked) [M12] |  |  |  |  | 12 nM | 2 nM | 2 nM | 10 nM |
| O=C1CCC(N2Cc3cc4c(cc3C2=O)CCC2(CN(CC3CCC5(CC3)CCN(c3ccc([C@@H]6c7ccc(O)cc7CC[C@@H]6c6ccccc6)cc3)CC5)C2)O4)C(=O)N1 (some centres unmarked) [A3 8] |  |  |  |  |  | 15 nM |  |  |
| N#CC1(CN2CCC3(CC2)COc2c3ccc3c2CN(C2CCC(=O)NC2=O)C3=O)CCN(CC2CCN(c3ccc([C@@H]4c5ccc(O)cc5CC[C@@H]4c4ccccc4)cc3)CC2)CC1 (some centres unmarked) [N7] | 56% | 67% | 2% | 13% |  | 1.72 nM |  |  |
| O=C1CCC(N2C(=O)c3cc4c(cc3C2=O)OCC2(CCN(C3CC5(C3)CN(c3ccc(C6c7ccc(O)cc7CCC6c6ccccc6)cc3)C5)CC2)C4)C(=O)N1 (centres unmarked) [O2] |  |  |  |  |  |  | 180 nM |  |
| O=C1CCC(N2Cc3cc4c(cc3C2=O)CCC2(CN(C3CC5(CCN(c6ccc([C@@H]7c8ccc(O)cc8CC[C@@H]7c7ccccc7)cc6)CC5)C3)C2)O4)C(=O)N1 (some centres unmarked) [M13] | 13% | 27% |  |  |  |  | 1.6 nM | 70 nM |
